Measurements reported in US6881739B1, “Use of cortisol antagonists in the treatment of heart failure” (priority 1999, dated 2005).

Tested on: heart failure
Experiment: Treatment of heart failure patients with ketoconazole (case observations, Examples 1 and 2)
Format: in vivo, human
Experimental: Also, moderate dyspnea and increased heart rate as well as an increase in liver size (indicative of fluid retention in the liver). Patient being treated for heart failure with lisinopril (Zestril®) Treatment: 400 mg of a racemate of the Cis-2S,4R and Cis-2R,4S isomers of ketoconazole (Fungoral™ tablets—Janssen-Cilag, Belgium) was administered at 10.00 pm every day for a 3 month period. Observations: Body weight reduced by 3.8 kg—attributable to a reduction in fluid retention. Heart rate fell from 72 beats/min to 62 beats/min. Reduction in liver size of 10% and a resulting reduction in liver transaminases • S-ASAT reduced from 0.44 to 0.30 μKat/L • S-ALAT reduced from 1.0 to 0.39 μKat/L Dyspnea, oedema of lower limbs and body fluid in the lungs reduced. Physical health as measured by a subnormal physical exercise test (Faggiano, P. et al. supra) improved by 15%.
Patient being treated for heart failure with furosemid (40 mg/day)
Treatment: As for Example 1.

[1] = Subject 1, 400 mg daily for 3 months
[2] = Subject 2, treatment as for Example 1

CC(=O)N1CCN(c2ccc(OCC3COC(Cn4ccnc4)(c4ccc(Cl)cc4Cl)O3)cc2)CC1 (racemic) [ketoconazole]
Body weight reduced by (Subject 1 (on lisinopril), 400 mg at 10.00 pm every day for 3 months, attributable to reduced fluid retention): 3.8 kg
Dose of co-administered lisinopril (Zestril) could be reduced [1]: half of original dose
Dyspnea, oedema of lower limbs and body fluid in the lungs [1]: reduced
Physical health as measured by a subnormal physical exercise test, improved by [1]: 15%
Reduction in liver size [1]: 10%
Heart rate after treatment (Subject 1, 400 mg daily for 3 months, fell from 72 beats/min): 62 beats/min
S-ASAT after treatment (Subject 1, 400 mg daily for 3 months, reduced from 0.44): 0.30 μKat/L
S-ALAT after treatment (Subject 1, 400 mg daily for 3 months, reduced from 1.0): 0.39 μKat/L
Body weight reduced by (Subject 2 (on furosemid 40 mg/day), treatment as for Example 1): 4.2 kg
Dyspnea, oedema of lower limbs and body fluid in lungs [2]: reduced
Physical health as measured by a subnormal physical exercise test, improved by [2]: 20%
Reduction in liver size [2]: 15%
Time from commencement of treatment until furosemid could be stopped [2]: ≤ 6 weeks
Heart rate after treatment (Subject 2, treatment as for Example 1, fell from 74 beats/min): 60 beats/min
S-ASAT after treatment (Subject 2, treatment as for Example 1, reduced from 0.58): 0.32 μKat/L
S-ALAT after treatment (Subject 2, treatment as for Example 1, reduced from 0.92): 0.68 μKat/L
